Measured values reported in article PMC6839509, “Fluorescent probes towards selective cathepsin B detection and visualization in cancer cells and patient samples” (Chemical Science, 2019).

Experiments:
[1] = molecular target: T1, human recombinant cathepsin B (Homo sapiens, UniProt P07858); test: Kinetic parameters for inhibition (kobs/I), pseudo-first order; format: biochemical; conditions: inhibitor at least 5-fold excess over cathepsin, 100 μM ACC substrate, pH 5.5, 37 °C, average of at least triplicate, S.D. below 20%
T1 construct: made in house
Procedure: (§1) All kinetic experiments were performed using a CLARIOStar (BMG LABTECH) plate reader operating in fluorescence kinetic mode using 96-well plates (Corning®, Costar®). ACC-labeled fluorescent substrates were screened at 355 nm (excitation) and 460 nm (emission) wavelengths (gain 650). The cathepsin assay buffer was composed of 100 mM sodium acetate, 100 mM sodium chloride, 10 mM DTT, 1 mM EDTA, pH 5.5. All kinetic studies were performed at 37 °C.
(§2) The kinetic parameters of inhibition of three irreversible Cy5/Cy7 labeled ABPs were determined for cathepsins B, L, V, S and K, and the inhibition parameters of CA-074 and CA-074Me were determined for cathepsins B and L. The kobs/I were measured under pseudo-first order reaction conditions. Individual cathepsins were mixed with various concentrations of ABP (at least 5-fold excess over cathepsins) and 100 μM ACC fluorescent substrate. Experiments were repeated at least in triplicate, and the results are presented as an average (S.D. were below 20%).

[2] = molecular target: T2, human recombinant cathepsin L (Homo sapiens, UniProt P07711); test: as above; format: biochemical; conditions: inhibitor at least 5-fold excess over cathepsin, 100 μM ACC substrate, pH 5.5, 37 °C, average of at least triplicate, S.D. below 20%
T2 construct: with a 100 nM final concentration of each active cathepsin for 30 min; made in house
T2 sequence (P07711 114-333): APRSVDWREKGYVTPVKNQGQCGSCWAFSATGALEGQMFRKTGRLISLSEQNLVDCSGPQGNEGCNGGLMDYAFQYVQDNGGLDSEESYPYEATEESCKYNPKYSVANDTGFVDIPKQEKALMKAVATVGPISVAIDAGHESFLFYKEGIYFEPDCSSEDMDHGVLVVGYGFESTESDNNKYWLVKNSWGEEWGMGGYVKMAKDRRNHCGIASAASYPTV
Procedure: as §1, §2

[3] = molecular target: T3, cathepsin B in human cancer cell lines (Homo sapiens, UniProt P07858); test: Detection of active cathepsin B in cancer cells using Cy5-labeled MP-CB-2 probe (SDS-PAGE, Western blot); format: cell-based; conditions: A-431 cells; E-64d 25 μM; 1 μM MP-CB-2
T3 construct: we were able to label both cathepsin B active forms (single chain 29 kDa, and light chain 6 kDa); endogenous in cells; host or cells: human cancer cell lines (A-431, HCT-116, OVCAR-5, SK-OV-3, MDA-MB-231, U2-OS, PC-3, HeLa and others)
Procedure: 50 000 cells from fourteen adherent cancer cell lines were seeded into 12-well plates and allowed to attach overnight. In parallel, 50 000 cells from four non-adherent cancer cell lines were placed into 12-well plates and cultured overnight. The next day, MP-CB-2 ABP was added to the cells (1 μM final concentration) and incubated for various times (1, 4, 8, 24 hours). Next, cells were harvested, centrifuged at 500 × g for 5 min, cell pellets were washed with 1× DPBS, cells were centrifuged again at 500 × g for 5 min, and the supernatant was discarded. Finally, cell pellets were solubilized in 100 μL of 1× SDS/DTT and boiled for 5 min, cooled to room temperature and sonicated. Each sample (30 μL) was then subjected to SDS-PAGE analysis (4–12% Bis–Tris Plus 10-well gels, 200 V, 30 min), followed by protein transfer onto the membrane (0.2 μm nitrocellulose membrane, 10 V, 60 min). Ponceau S staining verified equal loading and transfer of proteins. Membranes were blocked in 2.5% BSA in TBS-T for 1 hour at room temperature. […] The images were then analyzed with the Image Studio software.
50 000 of selected cancer cells (A-431, HCT-116, OVCAR-5, SK-OV-3, MDA-MB-231, U2-OS, and PC-3) were seeded into 12-well plates and allowed to attach overnight. […] All images were analyzed with Image Studio software.

[4] = molecular target: T4, cathepsin B in cancer cell lysates (Homo sapiens, UniProt P07858); test: Cathepsin B activity in cancer cell lysates with Ac-Cha-Leu-Glu(O-Bzl)-Arg-ACC substrate, with inhibitors; format: biochemical; conditions: lysates of selected cell lines (HeLa, A431, U2-OS, HCT-116, SKOV-3, MDA-MB-231); inhibitor pre-incubated 15 min; 100 μM substrate
T4 construct: we were able to label both cathepsin B active forms (single chain 29 kDa, and light chain 6 kDa); endogenous in cells; host or cells: human cancer cell lines (A-431, HCT-116, OVCAR-5, SK-OV-3, MDA-MB-231, U2-OS, PC-3, HeLa and others)
Procedure: Cell pellets from 50 000 cells were re-suspended in cathepsin assay buffer containing 0.5% Triton X-100 for cell lysis. Cell lysis was performed on ice for 30 min. After this time, cells were centrifuged at max speed for 5 min, and the supernatant (supplemented with 10 mM DTT) was used for the kinetic assay. In each assay 100 μM of cathepsin B selective substrate Ac-Cha-Leu-Glu(O-Bzl)-Arg-ACC was used, and the reaction progress was monitored for 30 min. In the experiments with inhibitors, cell lysate was pre-incubated with inhibitor for 15 min, followed by substrate addition and kinetic readout. Each measurement was performed three times and the substrate hydrolysis rate (RFU/s) in control (no inhibitor) was set to 100%, and other values were adjusted accordingly.

| SMILES | kobs/I Cat-B [1] | kobs/I Cat-L [2] | prevention of cathepsin B labeling by MP-CB-2 on pre-incubation with inhibitor [3] | inhibition of cathepsin B activity in cell lysates [4] |
| --- | --- | --- | --- | --- |
| CCCNC(=O)[C@H]1O[C@@H]1C(=O)N[C@H](C(=O)N1CCC[C@H]1C(=O)OC)[C@@H](C)CC [CA-074Me] | 92 M⁻¹ s⁻¹ | 152 M⁻¹ s⁻¹ | completely prevented |  |
| CCOC(=O)[C@H]1O[C@@H]1C(=O)N[C@@H](CC(C)C)C(=O)NCCC(C)C [E-64d] |  |  | completely prevented |  |
| CCCNC(=O)[C@H]1O[C@@H]1C(=O)N[C@H](C(=O)N1CCC[C@H]1C(=O)O)[C@@H](C)CC [CA-074] | 42,000 M^-1s^-1 | n.i. |  | completely depleted its catalytic activity |
